Laboratory results from PMC7970121, “Combination With Tomatidine Improves the Potency of Posaconazole Against Trypanosoma cruzi” (Frontiers in Cellular and Infection Microbiology, 2021).
Counter-ions that a name gives are not always drawn. Like-named read-outs stand apart in the source and are kept apart here.

Tests used:
[1] = tested on: Trypanosoma cruzi epimastigotes (STIB 980 strain); experiment: Activity on T. cruzi epimastigotes (resazurin, 72 h); assay type: cell-based
Protocol: (§1) L6 cells derived from rat skeletal myoblast (ATCC CRL-1458) were used as host cells for T. cruzi using trypomastigotes of Tulahuen C2C4 strain (DTU VI) expressing the β-galactosidase gene (LacZ) ([Buckner et al., 1996]). The cultures were sustained in RPMI-1640 supplemented with 10% inactivated fetal bovine serum (FBS) and […] at 5% CO2 and 37°C. Epimastigote T. cruzi (STIB 980 strain, DTU TcI) were cultivated at 28°C in liver infusion tryptose (LIT) medium supplemented with hemin (2 μg/ml) and 10% FBS and were used in log phase of growth. Bloodstream trypomastigotes (Y strain, DTU II) were isolated from Swiss Webster mice infected at the peak of parasitemia (≥ 2.5 × 10^6/ml), as reported ([Meirelles et al., 1986]).
Epimastigotes (10^7 parasites/ml) were incubated for 72 h at 28°C with serially diluted compound concentrations (eleven 1:3 dilutions) in supplemented LIT medium. Parasite viability and motility were evaluated by direct observation by light microscopy and fluorometric assays performed with resazurin (12.5 mg resazurin dissolved in 100 ml distilled water). After 2–4 h of incubation with resazurin solution, plates were read in Spectramax Gemini XS microplate fluorometer (Molecular Devices Cooperation, USA) using wavelengths of 536 nm (excitation) and 588 nm (emission) ([Räz et al., 1997]). Growth was expressed as percentage of the values of solvent-treated controls. The graphics program Softmax Pro (Molecular Devices) was used to construct dose–response curves and calculate EC50 (half maximal inhibitory concentration) values. Bz was used as reference drug.

[2] = Cytotoxicity against L6 cells (resazurin, 72 h); assay type: cell-based, rat
Protocol: Rat skeletal myoblasts (L6 cell lines) were seeded in 96-well plates (4 × 10^4 cells/well) in 100 μl RPMI 1640 medium supplemented with 10% fetal bovine serum (FBS) and 2 mM L-glutamine. After 24 h incubation the medium was replaced with 100 μl of fresh medium with or without a serial dilution of compound concentrations (eleven three-fold dilution steps). After 72 h of compound exposure, fluorescent dye resazurin (10 μl, 12.5 mg resazurin dissolved in 100 ml water) was added for 2 h and the readings performed at Spectramax Gemini XS microplate fluorometer (Molecular Devices Cooperation, USA), with excitation wavelength of 536 nm and an emission wavelength of 588 nm. Growth was expressed as percentage of the values of solvent-treated controls. The graphics program Softmax Pro (Molecular Devices) was used to construct dose–response curves and calculate EC50 values. Podophyllotoxin (a microtubule destabilizing agent) was used as positive control.

[3] = tested on: Trypanosoma cruzi intracellular amastigotes (Tulahuen strain in rat L6 myoblasts); experiment: Activity on T. cruzi intracellular amastigotes in L6 cells (LacZ/CPRG, 96 h); assay type: cell-based; settings: for EC50: read-out: Amastigotes (mean ± SD) EC50; for EC90: read-out: Amastigotes (mean ± SD) EC90
Protocol: as §1
Rat skeletal myoblasts (L6 cell lines) were seeded in 96-well plates (10^4 cells/well) in 100 μl RPMI 1640 medium supplemented with 10% fetal bovine serum (FBS) and 2 mM L-glutamine. The medium was removed after 24 h incubation and replaced by 100 μl of fresh medium containing 10^5 LacZ trypomastigotes (Tulahuen DTU VI). After 48 h, the medium was again removed and replaced with or without a serial of compound concentrations (eleven three-fold dilution steps). After 96 h of compound exposure, CPRG/Nonidet (50 μl) substrate was added and the reading performed after 2–6 h at 540 nm in Versamax microplate reader (Molecular Devices Cooperation, USA). Growth was expressed as percentage of the values of solvent-treated controls. The graphics program Softmax Pro (Molecular Devices) was used to construct dose–response curves and calculate EC50 values. Bz was used as reference drug.

[4] = STIB980, STIB 980 strain, 72 h, n = 3, read-out: Epimastigotes (mean ± SD) EC50
[5] = STIB980, STIB 980 strain, 72 h, n = 3, read-out: Epimastigotes (mean ± SD) EC90
[6] = EC50 on mammalian L6 cells versus EC50 on intracellular amastigotes
[7] = Trypanosoma cruzi, TULAHUEN, L6, 96 h, Tulahuen strain in rat L6 myoblasts, 96 h, n = 3
[8] = Trypanosoma cruzi, Tulahuen strain in rat L6 myoblasts, 96 h, n = 3
[9] = rat L6 myoblasts, 72 h, n = 3, read-out: L6 cells (mean ± SD) EC50
[10] = Tulahuen strain in rat L6 myoblasts, 96 h, n = 3
[11] = L6 rat skeletal myoblast cells, rat L6 myoblasts, 72 h, n = 3, read-out: L6 cells (mean ± SD) EC50
[12] = Trypanosoma cruzi, TULAHUEN, L6, 96 h

Row | Compound | EC50 [1, 4] | EC90 [1, 5] | EC50 at 72 h ([2]; rat) | SI (Selectivity Index) [3, 6] | EC50 [3, 7] | EC90 [3, 8] | EC50 at 72 h [2, 9] | EC50 [3, 10] | EC50 at 72 h [2, 11] | SI (Selectivity Index) [3] | EC50 ([1]; STIB980, 72 h, read-out: Epimastigotes (mean ± SD) EC50) | EC90 ([1]; STIB980, 72 h, read-out: Epimastigotes (mean ± SD) EC90) | EC50 [3, 12] | EC90 [3, 12] | EC50 ([3]; Tulahuen strain in rat L6 myoblasts, 96 h, n = 3, listed as RO48-8071)
1 | NC1CN2CCC1CC2 (centres unmarked) [3-Amino quinuclidine dihydrochloride, 3-Amino quinuclidine] | > 502 µM | > 502 µM | > 502 µM | >1.8 | 268 ± 10 µM | 485 ± 28 µM |  |  |  |  |  |  |  |  | 
2 | OCC1C(O)C(O)C(O)CN1CCCCCOCC12CC3CC(CC(C3)C1)C2 (centres unmarked) [AMP-Deoxy nojirimycin, AMP-Deoxynojirimycin] | 158 ± 5.9 µM | 237 ± 2 µM | 40.4 ± 10.9 µM | 1.2 | 34.8 ± 15.1 µM | 66.6 ± 15.4 µM |  |  |  |  |  |  |  |  | 
3 | CN(C)CCC=C1c2ccccc2CCc2ccccc21 [Amitriptyline (hydrochloride), Amitriptyline] | 59.9 ± 5.4 µM | 96.8 ± 3.3 µM |  | 1.4 | 12.2 ± 3.6 µM | 20.9 ± 3 µM | 17.2 ± 1.2 µM |  |  |  |  |  |  |  | 
4 | O=C(Cn1ccnc1[N+](=O)[O-])NCc1ccccc1 [Benznidazole] | 13.9 ± 2.2 µM | 101 ± 18 µM | > 384 µM | >172 | 2.2 µM | 6.61 ± 2.5 µM |  | 2.22 ± 0.98 µM |  |  |  |  |  |  | 
5 | CC(C)(Oc1ccc(CCNC(=O)c2ccc(Cl)cc2)cc1)C(=O)O [Bezafibrate] | > 276 µM | > 276 µM |  |  | 132 ± 38.6 µM | 226 ± 65 µM |  |  | > 276 µM | >2.1 |  |  |  |  | 
6 | S=C(S)OC1CC2CC1C1CCCC21 (centres unmarked) [D609 (potassium salt), D609] | 154 ± 32 µM | > 375 µM |  |  | 99.4 ± 17.6 µM | 198 ± 32 µM |  |  | 247 ± 20 µM | 2.5 |  |  |  |  | 
7 | CCCCCCCCc1ccc(CCC(N)(CO)COP(=O)(O)O)cc1 (centres unmarked) [FTY720 Phosphate, FTY720-P] | > 258 µM | > 258 µM | 127 ± 22 µM | 1.4 | 93.8 ± 3.3 µM | 168 ± 25 µM |  |  |  |  |  |  |  |  | 
8 | CCCCCCCCc1ccc(CCC(N)(CO)CO)cc1 [FTY720] | 7.55 ± 0.4 µM | 11.6 ± 0.3 µM | 0.39 ± 0.1 µM | 0.5 | ≤ 1 µM | 1.84 ± 1.3 µM |  | 0.81 ± 0.5 µM |  |  |  |  |  |  | 
9 | CCCCC(C)C(OC(=O)CC(CC(=O)O)C(=O)O)C(CC(C)CC(O)CCCCC(O)CC(O)C(C)N)OC(=O)CC(CC(=O)O)C(=O)O (centres unmarked) [Fumonisin B1] |  |  |  | >1.8 |  |  | > 92 µM |  |  |  | > 92 µM | > 92 µM | 50.8 ± 5.7 µM | 84 ± 9.1 µM | 
10 | O=C(/C=C/c1ccc(/C=C/C(=O)Nc2ccc(C3=NCCN3)cc2)cc1)Nc1ccc(C2=NCCN2)cc1 [GW4869 (hydrochloride hydrate), GW4869] | > 173 µM | > 173 µM |  | >1.7 | 106 ± 44 µM | > 173 µM | > 173 µM |  |  |  |  |  |  |  | 
11 | CCCCCCC(=O)CCCCCC/C=C/C[C@@H](O)[C@H](O)[C@@](N)(CO)C(=O)O [Myriocin] | > 249 µM | > 249 µM |  | >1.9 | 130 ± 34 µM | 231 ± 25 µM | > 249 µM |  |  |  |  |  |  |  | 
12 | CCCCCCCCCC(=O)NC(CN1CCOCC1)C(O)c1ccccc1 (centres unmarked) [PDMP (hydrochloride), PDMP] | 47.9 ± 9.4 µM | 88.7 ± 18 µM |  |  | 12.5 ± 2.9 µM | 24.6 ± 9 µM |  |  | 33.5 ± 3.1 µM | 2.7 |  |  |  |  | 
13 | C1CN2CCC1CC2 [Quinuclidine hydrochloride, Quinuclidine] | > 677 µM | > 677 µM |  |  | 478 ± 174 µM | > 677 µM |  |  | > 677 µM | >1.4 |  |  |  |  | 
14 | C=CCN(C)CCCCCCOc1ccc(C(=O)c2ccc(Br)cc2)c(F)c1 [Ro48-8071] | 11.6 ± 6.1 µM | 29.4 ± 16.2 µM | 5.7 ± 2.4 µM | 12 |  | 2.5 ± 1.9 µM |  | 0.47 ± 0.09 µM |  |  |  |  |  |  | ≤ 1 µM
15 | Cc1cc2ncc(NC(=O)Nc3ccc(F)cc3F)c(-c3ccccc3Cl)c2cc1C [TMP-153] | 106 ± 27 µM | > 228 µM | 0.12 ± 0.03 µM | 1.4 |  | 3.9 ± 2.1 µM |  |  |  |  |  |  |  |  | 
